Data: patent publication US11426409B2, “Compounds, compositions and methods for treating or preventing HER-driven drug-resistant cancers” (The Regents of the University of Colorado, priority 2017, dated 2022)

Test system: HER2 phosphorylation
Conditions: HER2-driven cell lines, 2 hours, normoxic, immunoblot

CN(C)CC=CC(=O)Nc1cc2c(Nc3ccc(F)c(Cl)c3)ncnc2cc1O[C@H]1CCOC1 [afatinib, N-[4-[(3-Chloro-4-fluorophenyl)amino]-7-[[(3S)-tetrahydro-3-furanyl]oxy]-6-quinazolinyl]-4(dimethylamino)-2-butenamide]
Concentration inhibiting HER2 phosphorylation (pHER2): 100 nM
